Tested on: CD8+ T cells
Experiment: In vitro priming of CD8+ T cells with pMHC/anti-CD28 coated beads, multimer staining readout
Format: cell-based, human
Conditions: HLA-A*24 healthy donors, three stimulations, A*2402 multimer+ CD8+
Description: In order to perform in vitro stimulations by artificial antigen presenting cells (aAPC) loaded with peptide-MHC complex (pMHC) and anti-CD28 antibody, we first isolated CD8 T cells from fresh HLA-A*24 leukapheresis products of healthy donors obtained from the Blood Bank Tuebingen.
CD8 T cells were either directly enriched from the leukapheresis product or PBMCs (peripheral blood mononuclear cells) were isolated first by using standard gradient separation medium (PAA, Cölbe, Germany). Isolated CD8 lymphocytes or PBMCs were incubated until use in T-cell medium (TCM) consisting of RPMI-Glutamax (Invitrogen, Karlsruhe, Germany) supplemented with 10% heat inactivated human AB serum (PAN-Biotech, Aidenbach, Germany), 100 U/ml Penicillin/100 μg/ml Streptomycin (Cambrex, Cologne, Germany), 1 mM sodium pyruvate (CC Pro, Oberdorla, Germany), 20 μg/ml Gentamycin (Cambrex). […] Isolation of CD8+ lymphocytes was performed by positive selection using CD8 MicroBeads (Miltenyi Biotec, Bergisch-Gladbach, Germany).
800.000 beads/200 μl were coated in 96-well plates in the presence of 600 ng biotin anti-CD28 plus 200 ng relevant biotin-pMHC (high density beads). Stimulations were initiated in 96-well plates by co-incubating 1×10^6 CD8+ T cells with 2×10^5 washed coated beads in 200 μl TCM supplemented with 5 ng/ml IL-12 (PromoCell) for 3-4 days at 37° C. Half of the medium was then exchanged by fresh TCM supplemented with 80 U/ml IL-2 and incubating was continued for 3-4 days at 37° C. This stimulation cycle was performed for a total of three times. […] For analysis, a BD LSRII SORP cytometer equipped with appropriate lasers and filters was used. Peptide specific cells were calculated as percentage of total CD8+ cells. Evaluation of multimeric analysis was done using the FlowJo software (Tree Star, Oregon, USA). In vitro priming of specific multimer+ CD8+ lymphocytes was detected by appropriate gating and by comparing to negative control stimulations.

Sequence	Positive donors/donors tested [%]	Positive wells/wells tested [%]
AYLVYTDRL (listed as Homo sapiens) [PPAP2C-001]	100%	54%
FYISPVNKL (listed as Homo sapiens) [AVL9-001]	100%	50%
HYKPTPLYF (listed as Homo sapiens) [SMC4-001]	75%	9%
LYQILQGIVF (listed as Homo sapiens) [CDC2-001]	88%	28%
NYLLYVSNF (listed as Homo sapiens) [MST1R-001]	50%	14%
NYLPFIMEL (listed as Homo sapiens) [UCHL5-001]	75%	14%
RFLSGIINF (listed as Homo sapiens) [NUF2-002]	50%	4%
SYIDVLPEF (listed as Homo sapiens) [MET-006]	63%	22%
SYIIDPLNL (listed as Homo sapiens) [PROM1-001]	83%	26%
SYNPLWLRI (listed as Homo sapiens) [ASPM-002]	63%	31%
TYGNLLDYL (listed as Homo sapiens) [ABL1-001]	50%	13%
VWSDVTPLTF (listed as Homo sapiens) [MMP11-001]	33%	11%
VYGIRLEHF (listed as Homo sapiens) [NUF2-001]	100%	25%
VYIEKNDKL (listed as Homo sapiens) [ERBB3-001]	83%	15%
YYNAAGFNKL (listed as Homo sapiens) [UQCRB-001]	100%	38%

Tested on: HLA-DR broad antigens (HLA-DR1 to DR7)
Experiment: ProImmune REVEAL MHC:peptide in vitro binding assay
Design: species or system human
Conditions: HLA-DR1, 3, 4 and 11; result in words
Method: The ProImmune REVEAL™ technology employs in vitro HLA-DR assembly assays to determine the on-rates for the MHC:peptide complex as one major determinant of the binding constant of individual peptides. The assay was performed by ProImmune (Oxford, UK). At a fixed time point, the amount of intact MHC:peptide complexes is measured and compared with the amount for a pass/fail control (relative weak binder). A strong, promiscuous HLA-DR binder is included as positive control. Values indicate amount of binding for the individual peptides and HLA-DR molecules relative to the pass/fail control.
In this assay, binding was compared to that of a pass/fail control binder, and to a positive control peptide for each HLA-DR antigen.

Sequence	in vitro binding to HLA-DR
TLGEFLKLDRERAKN (listed as Homo sapiens) [IMA-BIR-002]	promiscuous binding

Tested on: anti-survivin T-cell response
Experiment: Phase I/II vaccination study, T cell response (IFN-g ELISPOT, +/-ICS)
Format: in vivo, human
Conditions: among the 16 reacting patients

Sequence	patients with induction of an anti-survivin T-cell response upon vaccination
TLGEFLKLDRERAKN (listed as Homo sapiens) [IMA-BIR-002]	12

Same assay, conditions: of the 19 patients, prostate carcinoma, s.c. vaccination

Sequence	patients who reacted to the peptide (IFN-g ELISPOT, +/-ICS)
TLGEFLKLDRERAKN (listed as Homo sapiens) [IMA-BIR-002]	16
